pIC50: −log10 of the molar value.
Assays:
[1] = biological target: Serotonin receptor 2B (5HT2B (Homo sapiens, UniProt P41595)); test: Selectivity panel: 5HT2B; assay type: cell-based
Procedure: (§1) Supplement 41598_2018_22081_MOESM1_ESM.docx, table 2: Supplementary table 2: Selectivity profile of JBSNF-000088 (at 10 µM) vs a panel of 34 receptors, channels and enzymes. | column: E% (agonistic); I% (antagonistic or inhibitory)

mouse NNMT (mNNMT) = biological target: T1, mouse NNMT (mNNMT) (Mus musculus, UniProt O55239); test: Fluorescence based NNMT enzymatic assay (mouse); settings: fluorescence based biochemical assay
T1 construct: The full length NNMT proteins (1–264 amino acids) of human & mouse; 6 × His tag (N); TEV cleavage site (ENLYFQG) (N); made in house; host or cells: E. coli Rosetta2(DE3)pLysS
T1 sequence (O55239 whole entry, the tested form may be a part): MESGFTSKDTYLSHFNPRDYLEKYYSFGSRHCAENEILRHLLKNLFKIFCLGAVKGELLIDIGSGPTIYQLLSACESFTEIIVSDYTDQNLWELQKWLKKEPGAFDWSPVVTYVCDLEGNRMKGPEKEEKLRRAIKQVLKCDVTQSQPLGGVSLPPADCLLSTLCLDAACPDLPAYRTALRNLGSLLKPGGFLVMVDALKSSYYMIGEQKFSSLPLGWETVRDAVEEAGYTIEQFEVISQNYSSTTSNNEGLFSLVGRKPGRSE
Procedure: (§2) NNMT activity was measured with the fluorescence enzymatic assay[22],[23]. MNA formed in the NNMT reaction reacts with acetophenone in the presence of KOH and formic acid and forms a fluorescent product 2, 7- naphthyridine. JBSNF-000088 was screened using human, mouse and monkey NNMT enzymes. Different concentrations of inhibitors were preincubated along with the enzyme for 30 minutes at room temperature. Reaction was initiated by addition of SAM and nicotinamide mixture (7 µM, 20 µM, 8 µM SAM and 6 µM, 20 µM, 9 µM nicotinamide for human, mouse and monkey NNMT assays respectively) for 60 minutes at 37 °C. The final assay reaction mixture contained a buffer of 100 mM Tris Hcl pH 7.5, 0.04% BSA, 2 mM dithiothreitol and 1% DMSO. At the end of the incubation, the reaction was stopped by the addition of ethanol: acetophenone mix (75% ethanol: 25% acetophenone) and 5 M potassium hydroxide prepared with 50% ethanol. The reaction was incubated for 15 minutes following which 100 µL of 60% formic acid was added. […] The fluorescent product 2, 7- naphthyridine was measured using a Tecan reader with excitation at 375 nm and emission at 430 nm. The IC50 values were determined by fitting the inhibition curves (percent inhibition versus inhibitor concentration) using a four parametric sigmoidal dose response using GraphPad Prism software.

[2] = tested on: Ca2+ Channel (L-Type DHP Site); test: Selectivity panel: Ca2+ channel; assay type: binding; settings: 10 µM
[3] = biological target: Adenosine Receptor 2A (ADORA2A) (Homo sapiens, UniProt P29274); test: Selectivity panel: ADORA2A; assay type: cell-based
Adenosine Receptor 2A (ADORA2A), sequence (P29274 whole entry): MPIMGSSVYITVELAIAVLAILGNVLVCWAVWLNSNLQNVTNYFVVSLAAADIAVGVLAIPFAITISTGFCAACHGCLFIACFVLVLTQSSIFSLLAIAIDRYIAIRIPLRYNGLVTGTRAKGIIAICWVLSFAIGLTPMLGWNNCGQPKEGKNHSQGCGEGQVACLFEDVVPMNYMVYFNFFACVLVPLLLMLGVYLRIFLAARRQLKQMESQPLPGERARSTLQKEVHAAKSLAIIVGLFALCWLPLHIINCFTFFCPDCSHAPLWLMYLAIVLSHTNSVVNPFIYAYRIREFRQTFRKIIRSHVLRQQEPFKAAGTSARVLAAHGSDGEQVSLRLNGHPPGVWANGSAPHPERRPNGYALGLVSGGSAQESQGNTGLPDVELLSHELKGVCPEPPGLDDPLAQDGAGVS

human NNMT = test: Thermal shift assay, human NNMT; assay type: binding; settings: in presence of SAM, molar ratio enzyme:SAM:compound ~1:5:10
Procedure: Thermal shift assay experiments were carried out as described previously.

monkey NNMT (mkNNMT) = biological target: T2, monkey NNMT (mkNNMT) (Macaca mulatta, UniProt F7ERX8); test: Fluorescence based NNMT enzymatic assay (monkey); settings: fluorescence based biochemical assay
T2 construct: made in house
T2 sequence (F7ERX8 1-264): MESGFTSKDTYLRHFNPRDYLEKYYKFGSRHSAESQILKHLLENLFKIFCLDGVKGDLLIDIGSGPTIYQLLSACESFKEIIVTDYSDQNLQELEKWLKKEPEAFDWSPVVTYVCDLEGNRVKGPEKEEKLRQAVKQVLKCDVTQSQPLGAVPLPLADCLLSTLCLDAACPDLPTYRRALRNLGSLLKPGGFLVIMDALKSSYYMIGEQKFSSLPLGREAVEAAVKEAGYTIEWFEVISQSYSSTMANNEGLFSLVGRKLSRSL
Procedure: as §2

[4] = biological target: Adrenoreceptor alpha 2A (ADRA2A) (Homo sapiens, UniProt P08913); test: Selectivity panel: ADRA2A; assay type: cell-based
Adrenoreceptor alpha 2A (ADRA2A), sequence (P08913 whole entry): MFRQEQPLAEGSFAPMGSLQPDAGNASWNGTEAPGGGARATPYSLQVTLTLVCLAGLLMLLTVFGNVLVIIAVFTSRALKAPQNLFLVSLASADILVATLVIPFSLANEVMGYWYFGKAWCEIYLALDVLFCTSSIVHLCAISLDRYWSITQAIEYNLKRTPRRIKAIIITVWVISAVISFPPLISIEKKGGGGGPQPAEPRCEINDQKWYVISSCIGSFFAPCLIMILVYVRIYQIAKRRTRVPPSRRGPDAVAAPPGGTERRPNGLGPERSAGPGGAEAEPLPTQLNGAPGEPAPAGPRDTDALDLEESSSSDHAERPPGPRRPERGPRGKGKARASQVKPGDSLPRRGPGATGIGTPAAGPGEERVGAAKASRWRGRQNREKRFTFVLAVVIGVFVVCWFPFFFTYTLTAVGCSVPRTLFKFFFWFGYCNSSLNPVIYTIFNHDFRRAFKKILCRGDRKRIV
Procedure: as §1

[5] = biological target: Muscarinic Receptor 2 (CHRM2) (Homo sapiens, UniProt P08172); test: Selectivity panel: CHRM2; assay type: cell-based
Muscarinic Receptor 2 (CHRM2), sequence (P08172 whole entry): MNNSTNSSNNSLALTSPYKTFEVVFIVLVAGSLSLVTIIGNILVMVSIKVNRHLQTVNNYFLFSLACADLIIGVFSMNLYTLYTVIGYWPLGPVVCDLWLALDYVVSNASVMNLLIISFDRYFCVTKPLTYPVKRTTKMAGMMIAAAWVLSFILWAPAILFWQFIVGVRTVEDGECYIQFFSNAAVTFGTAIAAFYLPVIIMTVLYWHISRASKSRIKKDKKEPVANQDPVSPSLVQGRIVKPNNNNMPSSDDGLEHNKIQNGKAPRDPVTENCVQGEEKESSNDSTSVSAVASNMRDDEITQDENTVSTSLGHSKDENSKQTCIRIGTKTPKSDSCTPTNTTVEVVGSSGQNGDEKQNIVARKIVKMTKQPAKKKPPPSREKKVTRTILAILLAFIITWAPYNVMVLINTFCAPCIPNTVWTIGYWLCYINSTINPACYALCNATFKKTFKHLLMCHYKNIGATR
Procedure: as §1

[6] = biological target: Mono Amine Oxydase A (MAO-A) (Homo sapiens, UniProt P21397); test: Selectivity panel: MAO-A; assay type: biochemical; settings: read-out: I% (antagonistic or inhibitory), MAO-A
Mono Amine Oxydase A (MAO-A), sequence (P21397 whole entry): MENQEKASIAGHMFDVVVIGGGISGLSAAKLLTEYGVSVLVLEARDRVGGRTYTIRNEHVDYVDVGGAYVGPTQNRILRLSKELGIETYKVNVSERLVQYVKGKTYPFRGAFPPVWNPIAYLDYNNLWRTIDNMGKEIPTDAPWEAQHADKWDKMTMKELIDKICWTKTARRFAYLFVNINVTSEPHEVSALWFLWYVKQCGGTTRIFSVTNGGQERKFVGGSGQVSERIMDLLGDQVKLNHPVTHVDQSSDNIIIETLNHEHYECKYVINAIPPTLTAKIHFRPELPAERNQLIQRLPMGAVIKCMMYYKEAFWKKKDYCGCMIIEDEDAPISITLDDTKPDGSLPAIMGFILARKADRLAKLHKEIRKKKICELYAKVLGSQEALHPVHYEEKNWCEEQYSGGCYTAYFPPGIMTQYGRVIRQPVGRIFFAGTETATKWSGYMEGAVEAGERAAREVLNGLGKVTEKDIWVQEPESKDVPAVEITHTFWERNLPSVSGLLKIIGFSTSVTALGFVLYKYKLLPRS

[7] = biological target: Cannabinoid Receptor 2 (CB2) (Homo sapiens, UniProt P34972); test: Selectivity panel: CB2; assay type: cell-based
Cannabinoid Receptor 2 (CB2), sequence (P34972 whole entry): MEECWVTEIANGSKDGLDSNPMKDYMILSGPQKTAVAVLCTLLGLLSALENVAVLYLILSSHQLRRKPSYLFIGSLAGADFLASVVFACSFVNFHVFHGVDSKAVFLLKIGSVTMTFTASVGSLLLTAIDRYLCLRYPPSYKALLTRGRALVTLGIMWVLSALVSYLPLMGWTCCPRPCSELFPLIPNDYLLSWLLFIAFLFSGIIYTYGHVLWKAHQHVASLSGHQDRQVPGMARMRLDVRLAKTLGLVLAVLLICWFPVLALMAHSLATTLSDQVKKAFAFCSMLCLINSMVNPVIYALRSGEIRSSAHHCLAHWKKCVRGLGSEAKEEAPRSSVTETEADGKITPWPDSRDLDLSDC
Procedure: as §1

[8] = biological target: Muscarinic Receptor 1 (CHRM1) (Homo sapiens, UniProt P11229); test: Selectivity panel: CHRM1; assay type: cell-based
Muscarinic Receptor 1 (CHRM1), sequence (P11229 whole entry): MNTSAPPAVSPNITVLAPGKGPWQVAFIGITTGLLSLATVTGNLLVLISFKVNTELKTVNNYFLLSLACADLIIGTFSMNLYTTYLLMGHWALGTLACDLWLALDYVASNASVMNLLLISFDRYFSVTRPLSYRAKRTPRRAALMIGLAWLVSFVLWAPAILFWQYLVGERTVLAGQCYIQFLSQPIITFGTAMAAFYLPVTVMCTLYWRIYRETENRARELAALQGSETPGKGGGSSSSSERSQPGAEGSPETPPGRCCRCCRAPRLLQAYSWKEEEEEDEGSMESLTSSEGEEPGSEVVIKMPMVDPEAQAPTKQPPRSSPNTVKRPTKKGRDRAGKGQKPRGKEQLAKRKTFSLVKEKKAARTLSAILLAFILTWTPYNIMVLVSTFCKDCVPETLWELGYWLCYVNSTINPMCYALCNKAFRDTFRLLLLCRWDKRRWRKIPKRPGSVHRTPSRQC
Procedure: as §1

[9] = 0.5 h
[10] = biological target: Dopamine Receptor 2 Short (D2S) (Homo sapiens, UniProt P14416); test: Selectivity panel: D2S; assay type: cell-based
Dopamine Receptor 2 Short (D2S), sequence (P14416 1-414 isoform P14416-2): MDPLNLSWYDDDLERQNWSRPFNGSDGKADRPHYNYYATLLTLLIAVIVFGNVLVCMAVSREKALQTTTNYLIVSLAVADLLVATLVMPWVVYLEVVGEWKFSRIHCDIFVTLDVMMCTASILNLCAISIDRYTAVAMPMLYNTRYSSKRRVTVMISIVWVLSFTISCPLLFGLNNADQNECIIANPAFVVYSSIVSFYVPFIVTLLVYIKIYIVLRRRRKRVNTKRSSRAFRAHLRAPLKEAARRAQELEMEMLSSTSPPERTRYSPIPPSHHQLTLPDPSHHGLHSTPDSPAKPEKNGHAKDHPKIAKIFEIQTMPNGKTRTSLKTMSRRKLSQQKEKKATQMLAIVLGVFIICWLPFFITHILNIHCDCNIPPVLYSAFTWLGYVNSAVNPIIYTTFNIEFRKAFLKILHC
Procedure: as §1

in vitro = settings: human, microsomes, Metabolic stability human microsomes (% remaining)
in vivo = settings: C57BL/6, mouse
[11] = tested on: Nicotinic AChR Receptor Muscle-Type; test: Selectivity panel: nAChR muscle-type; assay type: binding; settings: 10 µM
[12] = tested on: wild-type and NNMT knockout mice on HFD
From the text: NNMT fl/fl mice on a C57BL/6 background were generated by Regeneron Pharmaceuticals (Tarrytown, NY) using VelociGene® technology. A loxP locus was placed 1.6 kb upstream of the transcription starting site encompassing the gene promoter. A loxP-Frt-Hyg-Frt cassette was inserted 212 bp downstream of NNMT exon 1. The floxed coordinates were chr9:48,412,881–48,414,698. NNMT fl/fl mice were crossed with ZP3-cre mice (C57BL/6, Jackson Laboratories) to generate whole-body NNMT knockout mice. The DIO mouse study was conducted in accordance to the German Animal Protection Law, as well as according to international animal welfare legislation and rules. Female wild-type and NNMT knockout animals were put on high-fat diet (Ssniff HFD adjusted TD.97366) for 18 weeks and then treated with either JBSNF-000088 (50 mg/kg bid by oral gavage) or vehicle for four weeks (n = 9–10 per group). Throughout the study, Mice were housed in an environmentally controlled room at 23 °C on a 12 h:12 h light dark cycle (light on at 06:00 AM), and food and water was offered ad libitum. An oral glucose tolerance test was performed on day 25 of treatment: Animals were fasted overnight. 60 minutes before an oral glucose bolus (2 g kg^−1), JBSNF-000088 (50 mg kg^−1) or vehicle (0.5% HEC + 0.5% Tween80) was administered by oral gavage. For blood glucose analysis, blood was collected from the tail of conscious mice at time points 15, 30, 60 and 120 minutes after the glucose bolus.

Na+/K+ ATPase Pump = test: Selectivity panel: Na+/K+ ATPase; assay type: biochemical; settings: 10 µM

Serotonin receptor 2B (5HT2B, sequence (P41595 whole entry): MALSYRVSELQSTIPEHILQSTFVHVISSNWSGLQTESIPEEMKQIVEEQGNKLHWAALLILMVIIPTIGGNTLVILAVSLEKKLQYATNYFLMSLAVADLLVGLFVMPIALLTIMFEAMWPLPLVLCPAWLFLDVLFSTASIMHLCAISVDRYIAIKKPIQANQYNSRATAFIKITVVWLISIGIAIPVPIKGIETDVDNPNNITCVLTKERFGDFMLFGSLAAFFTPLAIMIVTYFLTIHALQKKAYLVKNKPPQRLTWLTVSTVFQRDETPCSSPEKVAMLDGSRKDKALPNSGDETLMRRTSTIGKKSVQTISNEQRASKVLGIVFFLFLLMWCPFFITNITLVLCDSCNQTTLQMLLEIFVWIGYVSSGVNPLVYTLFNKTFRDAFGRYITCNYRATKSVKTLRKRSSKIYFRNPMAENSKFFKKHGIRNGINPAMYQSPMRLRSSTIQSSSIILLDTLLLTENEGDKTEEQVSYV

COc1ccc(C(N)=O)cn1 [JBSNF-000088, 6-methoxynicotinamide]
E% (agonistic), 5HT2B ([1]; 10 µM): 4% | inhibition at 10 µM ([1]; read-out: I% (antagonistic or inhibitory), 5HT2B): 13% | pIC50 (mouse NNMT (mNNMT)): 5.30 | I% (antagonistic or inhibitory), Ca2+ Channel (L-Type DHP Site) [2]: 0% | E% (agonistic), ADORA2A ([3]; 10 µM): 4% | inhibition at 10 µM ([3]; read-out: I% (antagonistic or inhibitory), ADORA2A): 2% | shift in melting temperature (Tm), human NNMT (human NNMT): 5 K | pIC50 (monkey NNMT (mkNNMT)): 5.55 | E% (agonistic), ADRA2A ([4]; 10 µM): 4% | inhibition at 10 µM ([4]; read-out: I% (antagonistic or inhibitory), ADRA2A): -12% | E% (agonistic), CHRM2 ([5]; 10 µM): 13% | inhibition at 10 µM ([5]; read-out: I% (antagonistic or inhibitory), CHRM2): 3% | inhibition at 10 µM [6]: -1% | E% (agonistic), CB2 ([7]; 10 µM): -7% | inhibition at 10 µM ([7]; read-out: I% (antagonistic or inhibitory), CB2): 1% | E% (agonistic), CHRM1 ([8]; 10 µM): -3% | inhibition at 10 µM ([8]; read-out: I% (antagonistic or inhibitory), CHRM1): -7% | Metabolic stability human microsomes (% remaining) [9]: 90% | E% (agonistic), D2S ([10]; 10 µM): -3% | inhibition at 10 µM ([10]; read-out: I% (antagonistic or inhibitory), D2S): 12% | remaining at 0.5 h (in vitro): > 70% | Vd (in vivo): 0.69 L/kg | bioavailability (in vivo): 43% | clearance (in vivo): 20.5 mL/min/kg | clearance (in vivo; iv): 21 mL/min/kg | half-life (in vivo; iv): 30 min | Cmax (in vivo; po, 10 mg/kg): 3570 ng/mL | Tmax (in vivo; po, 10 mg/kg): 30 min | bioavailability (in vivo; po, 10 mg/kg): ~40% | half-life (in vivo; po, 10 mg/kg): 24 min | I% (antagonistic or inhibitory), Nicotinic AChR Receptor Muscle-Type [11]: -2% | insulin level or glucose-handling in NNMT knockout mice ([12]; NNMT knockout mice, vs vehicle-treated knockout): no differences in insulin level or glucose-handling | Fed glucose levels ([12]; after 28 days, vehicle vs JBSNF-000088, wild-type or knockout): not different | glucose tolerance ([12]; treated wild-type mice vs vehicle treated): improvement in glucose tolerance | plasma MNA ([12]; wild-type animals, one hour after last administration, 28-day treatment): significant reduction in plasma MNA | fed insulin levels ([12]; wild-type mice, four weeks, not statistically significant): trend to reduced insulin levels | food intake ([12]; wild-type or knockout animals, four weeks): no change in food intake | I% (antagonistic or inhibitory), Na+/K+ ATPase Pump (Na+/K+ ATPase Pump): 0%

Reference: publication PMC5826917, “A small molecule inhibitor of Nicotinamide N-methyltransferase for the treatment of metabolic disorders” (Scientific Reports, 2018)
